Laboratory results reported in patent US20120322715A1, “SERINE HYDROLASE FORMULATION” (NOVOZYMES A/S, priority 2010, published 2012).

System: Lipoclean lipase
Test: Storage stability of liquid Lipoclean lipase formulation: residual lipase activity (PNP-Palmitate hydrolysis, 405 nm) versus frozen reference
Type: biochemical
Details: 2% enzyme protein, sorbitol and glycerol, 0.08% Z-GAY-H, compared with frozen reference sample
Description: Lipoclean formulations, per se (LCLU/g) residual activities: The Lipase was formulated from crude concentrate with standard formulation ingredients (sorbitol and glycerol) with and without the serine protease inhibitor (2% enzyme protein, 0.08% Z-GAY-H added with a 1% DMSO solution). The solution was split into separate vials which were incubated at different temperature and times and compared in activity with a frozen reference sample frozen directly after mixing. The lipase activity was measured by ester bond hydrolysis in the substrate PNP-Palmitate (C:16) and releases PNP which is yellow and can be detected at 405 nm.

Z-GAY-H [0.08% serine protease inhibitor]
residual activities (lipase) (2 weeks, 50° C.): 71% | residual activities (lipase) (4 weeks, 40° C.): 70% | residual activities (lipase) (4 weeks, 50° C.): 56%
